# Laboratory results reported in patent publication US10537100B2, “Substituted methylenedioxybenzyl compounds and their use as synergists” (Endura SPA, priority 2015, dated 2020).
# Marks after values point to notes of the source that are not given here.
# Columns and labels:
# Type in all cases: in vivo
# Musca domestica = experiment: Contact test on treated glass surfaces, synergist with cypermethrin
# Protocol: Laboratory bred Musca domestica species, 4-5 days old mixed sex imagoes derived from a field collected strain were assayed for the test. 1000 ml of test solutions were prepared diluting in water 6.06 grams of cypermethrin commercial formulation, equivalent to 0.224 g of cypermethrin per liter of insecticidal solution and a suitable amount of synergist such as to have a ratio between cypermethryn and synergists=1:13. The synergists were formulated in the form of emulsified concentrate (EC). The following amount of the formulations of synergist EC were added to the above described insecticidal solution of cypermethrin.
# 3.83 g of EC formulation containing 77.1% (w/w) of the compound of Example 2 (5-n-butyl-6-((prop-2-ynyloxy)methyl)benzo[d][1,3]dioxole)
# 3.57 g of EC formulation containing 83% (w/w) of the comparison compound 5-(but-2-ynyloxymethyl)-6-n-propyl-benzo[1,3]dioxole (EN126) corresponding to 2.95 g of the compound of the invention and of the comparison product per liter of test formulation
# 1 ml of each test formulation was applied to each individual grass surface of 100 cm^2 by means of a hand held pump sprayer on a scale measuring by 2 decimal precision, being the acceptable limit of divergence: +/−10%. The treated glass surfaces were left at room temperature for 24 hours after treatment and prior to be used. 40 mixed sex Musca domestica imagoes (20 males and 20 females) were selected and placed into a 500 cm^3 glass cylinders covered with an untreated glass surface until the start of the study. Five replicates were executed, altogether 200 houseflies (100 males and 100 females) were used per test formulation. At the beginning of the test, the untreated glass covering the glass cylinder was replaced with a glass surface treated with the test formulation. The exposure time was 30 minutes. After this period of time, the treated glass surfaces were removed and replaced with untreated ones. During the test water and food (water/sugar solution) were provided to the test insect inside the glass cylinders
# In parallel with the test, the mortality of flies in an untreated control replicate was determined using the same conditions and methods. Throughout the control test, non-treated glass surfaces covered the glass cylinders. The maximum mortality rate allowed within the control group to consider the test representative was 10% after 24 hours. If above this value, the test was not considered representative and was repeated. During the trials, no deviance has been noted.
# The test conditions were as follows: • temperature: 23-25° C. • relative humidity: min. 60% • light regime: 12 hrs dark/12 hrs natural illumination.
# The reading intervals of the number of knocked down flies were: 10-20-30-40-50-60-90-120-180 minutes. Mortality was determined after 24 hours.
# The efficacy was calculated according the following formula
# Blattella germanica = experiment: Contact test on treated glass vials, synergist with cypermethrin; details: cypermethrin 120 μg/mL, synergist 1.0 g/L; for knock down: average of 4 repetitions
# Protocol: Laboratory bred B. germanica species, mixed ages (pre-immaginal and imagoes) and mixed sex were assayed for the test.
# An insecticide stock solution was prepared with 150 μL of cypermethrin commercial formulation and diluted to 15 μL/mL with technical acetone to a final volume of 10 mL. The solution contained 450 μg/mL of cypermethrin per liter of insecticidal solution
# Stock solution of the compounds of Example 1 and Example 2 were prepared dissolving around 10 mg of EC formulations containing compounds of the Example 1 and Example 2 in technical acetone to have a final concentration of 1.365 μg/mL.
# Stock solution (1650 μL) was diluted to 2250 μL with acetone or with stock of insecticide in acetone to have respectively a final concentration of 1 g/L of synergist (as active ingredient) or 0.12 g/L of cypermethrin+1 g/L of the compounds of Example 1 and Example 2. Insecticide alone was prepared adding 600 μL of stock solution to 1650 μL of acetone.
# Glass vials (internal surface 35 cm^2) were treated with 350 μL of insecticide solution and allowed to dry in a fume hood on a vial rotator and used as soon as the acetone was fully evaporated.
# B. germanica specimens were introduced singly in vials. 20 specimens were tested for each combination of product. The exposure time to product residues was 30 minutes. After this duration the specimens were transferred to an untreated vial ad provided with food and water.
# In parallel within the test, a control study has been set up with the same conditions and methods using acetone only treated vials.
# The test conditions were as follows: • temperature: 22-24° C. during knock down evaluation (t: 0-30′); 26° C. during mortality assessment (t: 24 h) • relative humidity: min. 60% • light regime: 8 hrs dark/16 hrs natural illumination.
# The reading intervals of the number of knocked down and the number of dead insects were: 5-10-15-20-25-30 minutes. A final reading was done 24 hours after the starting of the exposure.
# The calculation model of efficacy is according to Abbott's formula (Abbott W S (1925) A method for computing the effectiveness of an insecticide. J. Econ. Entomol. 18: 265-267):
# The results are reported in the following Table 5 and represent an average of 4 repetitions.
# [1] = system: Myzus persicae clone highly resistant to insecticide; experiment: Contact test on treated plant (pea seedling dip), synergist with neonicotinoid; details: synergist 1 g/L, mortality assessed at 48 hours, Abbott's formula
# Protocol: Laboratory bred Myzus persicae clone highly resistant to insecticide, derived from a field collected population after control failure, mixed age apterous parthenogenetic females adults, were assayed for the test.
# Four (4) different commercially available formulated insecticides were used and diluted as follow: • imidacloprid: 1000 mL of test solution was prepared diluting in water 20 μL of commercial formulation, containing 200 g/L of a.i., equivalent to 0.004 g of imidacloprid per liter of insecticidal solution; • thiacloprid: 1000 mL of test solution was prepared diluting in water 24 μL of commercial formulation containing 480 g/L of a.i, equivalent to 0.012 g of thiacloprid per liter of insecticidal solution;
# The compounds of Example 1 and Example 2 were formulated in the form of emulsified concentrate (EC).
# The following amount of the EC formulations were added to the above described insecticidal solution of insecticide to have a final concentration of synergist equal to 1 g/L:
# 20 mL of test formulations were used to wet by dipping for 5″ a small pea seedling (1-1.5 cm long). Seedlings were left at room temperature in a fume hood and allowed to dry for 15″. After drying 10-15 apterous parthenogenetic females were moved to the seedling and allowed to settle. Mortality produced by pyrethroids was assessed 24 hours later. Mortality produced by neonicotinoids was assessed 48 hours later.
# Three replicates were executed each composed by 2 subreplicates (seedlings) and 60-90 specimens were used per test formulation.
# In parallel with the test, the mortality of aphids in an untreated control replicate (seedlings dipped in water) was determined using the same conditions and methods.
# The efficacy was calculated according the Abbott's formula: […]
smiles,measurement,setting,value
"CC1(C)C(C=C(Cl)Cl)C1C(=O)OC(C#N)c1cccc(Oc2ccccc2)c1 (centres unmarked) [Cypermethrin, cypermethrin]",mortality by %,"Musca domestica; 24 h, 30 min exposure, cypermethrin formulation 6.06 g/l (0.224 g/l a.i.), cypermethrin:synergist 1:13",61%
same,Efficacy %,Musca domestica; calculated from 24 h mortality against untreated control,58.95%
same,knock down by %,"Musca domestica; reading at 10′, 30 min exposure, cypermethrin formulation 6.06 g/l (0.224 g/l a.i.), cypermethrin:synergist 1:13",6* %
same,knock down by %,"Musca domestica; reading at 20′, 30 min exposure, cypermethrin formulation 6.06 g/l (0.224 g/l a.i.), cypermethrin:synergist 1:13",46%
same,knock down by %,"Musca domestica; reading at 30′, 30 min exposure, cypermethrin formulation 6.06 g/l (0.224 g/l a.i.), cypermethrin:synergist 1:13",68%
same,knock down by %,"Musca domestica; reading at 40′, 30 min exposure, cypermethrin formulation 6.06 g/l (0.224 g/l a.i.), cypermethrin:synergist 1:13",83%
same,knock down by %,"Musca domestica; reading at 50′, 30 min exposure, cypermethrin formulation 6.06 g/l (0.224 g/l a.i.), cypermethrin:synergist 1:13",85%
same,knock down by %,"Musca domestica; reading at 60′, 30 min exposure, cypermethrin formulation 6.06 g/l (0.224 g/l a.i.), cypermethrin:synergist 1:13",85%
same,knock down by %,"Musca domestica; reading at 90′, 30 min exposure, cypermethrin formulation 6.06 g/l (0.224 g/l a.i.), cypermethrin:synergist 1:13",82%
same,knock down by %,"Musca domestica; reading at 120′, 30 min exposure, cypermethrin formulation 6.06 g/l (0.224 g/l a.i.), cypermethrin:synergist 1:13",76%
same,knock down by %,"Musca domestica; reading at 180′, 30 min exposure, cypermethrin formulation 6.06 g/l (0.224 g/l a.i.), cypermethrin:synergist 1:13",73%
same,mortality at 120 µg/mL,"Blattella germanica; Blattella germanica, 24 h after start of 30 min exposure, Abbott's formula",22.9%
same,knock down,Blattella germanica; reading at 5′,0
same,knock down,Blattella germanica; reading at 10′,6.7
same,knock down,Blattella germanica; reading at 15′,20
same,knock down,Blattella germanica; reading at 20′,40
same,knock down,Blattella germanica; reading at 25′,56.7
same,knock down,Blattella germanica; reading at 30′,60
"O=[N+]([O-])NC1=NCCN1Cc1ccc(Cl)nc1 [Imidacloprid, imidacloprid, reference compound]",Efficacy of the tested compounds,[1]; Imidacloprid (0.004 g per liter),14.2
"N#C/N=C1\SCCN1Cc1ccc(Cl)nc1 [thiacloprid, reference compound]",Efficacy of the tested compounds,[1]; thiacloprid (0.012 g per liter),36.242
